Test results as given in PubChem BioAssay (NCI).
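These data come from cells grown in 96-well plates and exposed to compound for 48 hours at five concentrations. GI50 = concentration required for 50% inhibition of growth. TGI marks complete inhibition of growth.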

Tests used:
Assay in all cases: NCI-60 cell line screen, 48 h
UACC-62 melanoma = tested on: UACC-62 melanoma
U251 CNS = tested on: U251 CNS
MOLT-4 leukemia = tested on: MOLT-4 leukemia
SN12C renal = tested on: SN12C renal
UACC-257 melanoma = tested on: UACC-257 melanoma
HOP-62 NSCLC = tested on: HOP-62 NSCLC
SK-MEL-28 melanoma = tested on: SK-MEL-28 melanoma
M14 melanoma = tested on: M14 melanoma
OVCAR-5 ovarian = tested on: OVCAR-5 ovarian
SF-268 CNS = tested on: SF-268 CNS
PC-3 prostate = tested on: PC-3 prostate
SNB-19 CNS = tested on: SNB-19 CNS
SNB-75 CNS = tested on: SNB-75 CNS
RXF 393 renal = tested on: RXF 393 renal
SR leukemia = tested on: SR leukemia
TK-10 renal = tested on: TK-10 renal
NCI-H226 lung = tested on: NCI-H226 lung
MDA-MB-435 = tested on: MDA-MB-435
A549 NSCLC = tested on: A549 NSCLC
HS 578T breast = tested on: HS 578T breast
SK-MEL-5 melanoma = tested on: SK-MEL-5 melanoma
HL-60(TB) leukemia = tested on: HL-60(TB) leukemia
ACHN renal = tested on: ACHN renal
COLO 205 colon = tested on: COLO 205 colon
HOP-92 NSCLC = tested on: HOP-92 NSCLC

CC1=C(C(=O)Nc2ccc(Cl)c(Cl)c2)C(c2cccc(Oc3ccccc3)c2)NC(=O)N1 (stereo not given)
GI50 (UACC-62 melanoma): 6.27 µM
TGI (UACC-62 melanoma): 14.1 µM
GI50 (U251 CNS): 5.28 µM
TGI (U251 CNS): 14.7 µM
GI50 (MOLT-4 leukemia): > 50 µM
TGI (MOLT-4 leukemia): > 50 µM
GI50 (SN12C renal): 5.28 µM
TGI (SN12C renal): 12.5 µM
GI50 (UACC-257 melanoma): 11.9 µM
TGI (UACC-257 melanoma): 42.6 µM
GI50 (HOP-62 NSCLC): 14.6 µM
TGI (HOP-62 NSCLC): 26.5 µM
GI50 (SK-MEL-28 melanoma): 11.1 µM
TGI (SK-MEL-28 melanoma): 33.2 µM
GI50 (M14 melanoma): 17.8 µM
TGI (M14 melanoma): 31.7 µM
GI50 (OVCAR-5 ovarian): 13.4 µM
TGI (OVCAR-5 ovarian): 33 µM
GI50 (SF-268 CNS): 6.65 µM
TGI (SF-268 CNS): 17.7 µM
GI50 (PC-3 prostate): 16.3 µM
TGI (PC-3 prostate): > 50 µM
GI50 (SNB-19 CNS): 20.1 µM
TGI (SNB-19 CNS): > 50 µM
GI50 (SNB-75 CNS): 15.9 µM
TGI (SNB-75 CNS): > 50 µM
GI50 (RXF 393 renal): 9.61 µM
TGI (RXF 393 renal): 26.5 µM
GI50 (SR leukemia): 28.1 µM
TGI (SR leukemia): > 50 µM
GI50 (TK-10 renal): 20.7 µM
TGI (TK-10 renal): > 50 µM
GI50 (NCI-H226 lung): 8.36 µM
TGI (NCI-H226 lung): 19.8 µM
GI50 (MDA-MB-435): 6.33 µM
TGI (MDA-MB-435): 16.7 µM
GI50 (A549 NSCLC): 3.94 µM
TGI (A549 NSCLC): > 50 µM
GI50 (HS 578T breast): 6.72 µM
TGI (HS 578T breast): 22.3 µM
GI50 (SK-MEL-5 melanoma): 8.07 µM
TGI (SK-MEL-5 melanoma): 17 µM
GI50 (HL-60(TB) leukemia): 22.8 µM
TGI (HL-60(TB) leukemia): > 50 µM
GI50 (ACHN renal): 6.6 µM
TGI (ACHN renal): 17.3 µM
GI50 (COLO 205 colon): 12.6 µM
TGI (COLO 205 colon): 35.7 µM
GI50 (HOP-92 NSCLC): 24.6 µM
TGI (HOP-92 NSCLC): > 50 µM
